In patent publication US20260034107A1, “SUBSTITUTED FUSED IMIDAZOLE DERIVATIVES AND METHODS OF TREATING SICKLE CELL DISEASE AND RELATED COMPLICATIONS” (vTv Therapeutics LLC, priority 2019, published 2026):

What was measured:
HbF [1] = experiment: Western blot analysis of HbF induction in KU812 cells; format: cell-based, human; details: for HbF induction by Western blot: tested concentrations 0.5-20 μM; for increased HbF (Western blot): at concentrations between 0.5 to 5 PM
Protocol: (§1) About 20-50 ug of protein is separated by SDS-polyacrylamide gel electrophoresis, and transferred to nitrocellulose membranes. Membranes are blocked in 5% dry milk containing TBS-T for 30 minutes followed by one hour and incubated with HbF or actin antibodies. After several washes, membranes are incubated with 1:10000 diluted HRP-conjugated secondary antibody (Thermo Scientific), developed with ECL Prime reagent (GE Healthcare Biosciences). Images may be captured on a Bio-Rad Chemi-Doc MP Imaging System and protein bands quantified by densitometry.
(§2) KU812, a human leukemic cell line that expresses the fetal gamma-globin and adult beta-globin genes, was used as a system for screening. […] (See Zein S, Lou R F, Sivanand S, Ramakrishnan V, Mackie A, Li W, Pace BS. KU812 Cell Line: model for identifying fetal hemoglobin inducing drugs. Exp Biol Med (Maywood) 235:1385-94, 2010.) KU812 cells were grown in Iscove's Modified Dulbecco Media (IMDM) and 10% fetal bovine serum until in log phase growth.
Western blot analysis was also conducted to determine level of induction of HbF in KU812 cells by Compounds 73, 134, 473, and 236. Hydroxyurea and hemin were used as positive controls, and ß-actin was used as a protein loading control.

KU812 cells = experiment: KU812 cell counts and viability by 0.4% Trypan blue exclusion; format: cell-based, human; details: 48 hours, 0.5, 2.5, 5.0 and 20 μM, widest range of drug concentrations
Protocol: as §2
KU812 cells in log growth phase were treated with compounds 73, 134, 473 and 236 (See Table A) at a doses of 0.5, 2.5, 5.0 and 20 μM for 48 hours. At harvest, cell counts and viability were measured by 0.4% Trypan blue exclusion.

HbF [2] = experiment: Flow cytometry of KU812 cells for HbF positive cells (F-cells) and MFI; format: cell-based, human; details: flow cytometry, 0.5, 2.5, 5, 10, and 20 μM
Protocol: (§3) About 5×10^5 cells are harvested after treatment with compound, washed twice with ice cold phosphate buffered saline and resuspended in 4% paraformaldehyde for 40 minutes at 37° C. Fixed cells are permeabilized with ice-cold acetone/methanol (4:1) and washed with phosphate buffered saline followed by incubation with FITC-conjugated anti-HbF antibody (1:1000, Abcam) for 20 minutes. The labeled cells may be analyzed using a Becton Dickerson LSR-II flow cytometer (BD Bioscience, San Jose, CA, USA) and FlowJo v0.9 software.
as §2
Flow cytometry was conducted for KU812 cells following treatment with Compounds 473 and 236 at various concentrations (0.5, 2.5, 5, 10, and 20 μM). […] Compounds 73 and 134 were not analyzed by flow cytometry.

γ-globin = γ-globin / HbF expression in sickle erythroid progenitor cells; format: cell-based; details: 48 hours
Protocol: as §1
About 5×10^5 cells are harvested after treatment with compound, washed twice with ice cold phosphate buffered saline and resuspended in 4% paraformaldehyde for 40 minutes at 37° C. […] The labeled cells may be analyzed using a Becton Dickerson LSR-II flow cytometer (BD Bioscience, San Jose, CA, USA) and FlowJo v0.9 software.
To test compounds under conditions more closely modeling physiological conditions for one with a SCD, sickle erythroid progenitor cells were cultured for 10 days and then treated with Compound 473 for 48 hours at concentrations of 0.5 μM and 2.5 μM. Treated cells were analyzed by western blot for levels of expression of HbF, HbS, and ß-actin relative to cells treated with DMSO, hemin, or HU. […]

HbS = experiment: Western blot of HbS protein in sickle erythroid progenitor cells; format: cell-based; details: 0.5 μM and 2.5 μM, 48 hours
Protocol: as §1
(§4) To test compounds under conditions more closely modeling physiological conditions for one with a SCD, sickle erythroid progenitor cells were cultured for 10 days and then treated with Compound 473 for 48 hours at concentrations of 0.5 μM and 2.5 μM. Treated cells were analyzed by western blot for levels of expression of HbF, HbS, and ß-actin relative to cells treated with DMSO, hemin, or HU. The same treated cells were also analyzed by flow cytometry for y-globin gene expression relative to cells treated with DMSO, hemin, or HU.

HbF [3] = experiment: Flow cytometry of F-cells in sickle erythroid progenitor cells; format: cell-based; details: 0.5 μM and 2.5 μM, 48 hours
Protocol: as §3, §4

[4] = system: sickle erythroid progenitor cells; experiment: Anti-sickling activity in sickle erythroid progenitor cells under hypoxia; format: cell-based; details: 0.5 μM and 2.5 μM, 48 hours, hypoxia (1% O2 and 5% CO2)
Protocol: As described above, sickle erythroid progenitor cells were cultured for 10 days and then treated with Compound 473 for 48 hours at concentrations of 0.5 μM and 2.5 μM or with hemin (about 50 μM) or with HU (about 100 μM). Treated cells were then subjected to hypoxia conditions (1% O2 and 5% CO2).

Compound | HbF induction by Western blot (HbF [1]) | effects on cell growth rates (KU812 cells) | increased HbF (Western blot) (HbF [1]) | mean fluorescence intensity (MFI) (HbF [2]) | number of HbF positive cells (F-cells) (HbF [2]) | γ-globin gene expression induction (γ-globin; 0.5 μM) [fold] | γ-globin gene expression induction (γ-globin; 2.5 μM) [fold] | HbS protein levels (HbS) | F-cell levels by flow cytometry (HbF [3]) | percent of sickled cells compared to DMSO control [4]
COCCNC(=O)c1cnc2c(c1)nc(Nc1nc3ccc(OC(F)(F)F)cc3s1)n2C [Compound 73, 3-Methyl-2-(6-trifluoromethoxy-benzothiazol-2-ylamino)-3H-imidazo[4,5-b]pyridine-6-carboxylic acid (2-methoxy-ethyl)-amide] | showed HbF induction | – | – | – | – | – | – | – | – | –
CN(C)C(=O)CNC(=O)c1ccc2c(c1)nc(Nc1nc3ccc(C(F)(F)F)cc3s1)n2C [Compound 134, 1-Methyl-2-(6-trifluoromethyl-benzothiazol-2-ylamino)-1H-benzimidazole-5-carboxylic acid dimethylcarbamoylmethyl-amide] | showed HbF induction | minimal effects | increased HbF | – | – | – | – | – | – | –
Cn1c(Nc2nc3ccc(C(F)(F)F)cc3s2)nc2cc(C(=O)NCCOCCO)ccc21 [Compound 236, 1-Methyl-2-(6-trifluoromethyl-benzothiazol-2-ylamino)-1H-benzoimidazole-5-carboxylic acid [2-(2-hydroxy-ethoxy)-ethyl]-amide] | did not show significant induction of HbF | – | – | some increase in MFI | did not significantly increase F-cells | – | – | – | – | –
Cn1c(Nc2nc3ccc(C(F)(F)F)cc3s2)nc2cc(C(=O)NCCOCCO)cnc21 [Compound 473, N-[2-(2-Hydroxyethoxy)ethyl]-3-methyl-2-[[6-(trifluoromethyl)-1,3-benzothiazol-2-yl]amino]imidazo[4,5-b]pyridine-6-carboxamide] | showed HbF induction | minimal effects | increased HbF | increased mean fluorescence intensity | increase in the number of HbF positive cells | 1.6 | 1.9 | without affecting HbS protein levels | Increased F-cell levels | significantly decreased the percent of sickled cells
